Measured values from patent US5234822A, “Trypanosoma cruzi heparin-binding protein and antibodies thereto” (priority 1991, dated 1993).

Columns and labels:
[1] = test system: T. cruzi trypomastigotes adhering to glutaraldehyde-fixed Vero cells; assay: Inhibition of trypomastigote binding to Vero cells; assay type: cell-based, Trypanosoma cruzi; details: trypomastigotes preincubated 30 min at 37° C., binding 60 min
Description: In these experiments attachment of trypomastigotes to Vero cell monolayers was measured as follows. Briefly, Vero cells were maintained in RPMI 1640 supplemented with heat-inactivated 1% Nu-serum (Collaborative Research Inc., Bedford, Mass.), penicillin (100 U/ml) and streptomycin ([…]). Unless noted otherwise, cells were maintained in plastic tissue culture flasks (150 cm^2, Bellco, Vineland, N.J.) and incubated at 37° C. in a humidified atmosphere containing 5% CO2 and 95% air. Cells were propagated every 1-2 weeks after trypsin-EDTA digestion (0.5 g trypsin, 0.2 g EDTA in HBSS without Ca^++ and Mg^++) in 16-well Lab-Tek® chamber slide™ (Nunc, Inc., Naperville, Ill.. Prior to binding experiments Vero cells were removed with trypsin and plated on 96-well tissue culture plates (Bellco, Vineland, N.J.) or in 16-well Lab-Tek® chamber slide™ at a density of 7.5×10^3 cells per well. After 24 h, the medium was removed, cells were washed twice with PBS, pH 7.2, and fixed for 5 min at 4° C. by addition of 2% glutaraldehyde (grade I, Sigma Chemical Co., St. Louis, Mo.) in PBS. Cell monolayers were washed twice with PBS, pH 7.2 and incubated overnight at 4° C. in 0.16M ethanolamine, pH 8.3 to block residual free […] amino groups. The next day, cell monolayers were washed three times with PBS as above, and two times with 1% BSA/RPMI-1640 and kept at least 1 h at 37° C. in the same medium.
Trypomastigotes, [^35 S]-labeled as described above, were added to the cell monolayers in a total volume of 100 μl/well and the plates were incubated for 1 h at 37° C. Each well was then washed five times with 100 μl prewarmed PBS (pH 7.2). The [^35 S] label was solubilized with 2M NaOH and the bound radioactivity was determined in a liquid scintillation counter. Alternatively, unlabeled trypomastigotes were added to wells of a 16-well Lab-Tek® chamber slide™ and incubated as above. After removing the plastic chamber, the slide was washed by dipping 5 times in PBS (pH 7.2) and immersed upside-down in 4% paraformaldehyde in PBS, containing 7% sucrose. Finally, the slide was rinsed with PBS, stained with Diff-Quik®and the number of bound T. cruzi were determined by counting under light microscopy. For inhibition studies, trypomastigotes were preincubated 30 min at 37° C. with the appropriate proteoglycan in 100 μl of 1% BSA-RPMI- 1640 before addition to cell monolayers. Binding was determined in triplicate at each inhibitor concentration and in the absence of inhibitor.
In this assay 100% binding was taken to 5 ×10^4 trypomastigotes/well bound in 60 min.

[2] = test system: T. cruzi penetrin (60 kD trypomastigote heparin-binding protein), column-purified; assay: Binding of column-purified [125I]-labeled penetrin to fibroblasts (Vero cells); design: species or system Trypanosoma cruzi
Description: Binding of [^125 I]-labeled penetrin to Vero cells was assayed as follows. Vero cells, grown in multiwell plates to confluence as described above, were rinsed once with 1% BSA-RPMI-1640, and incubated at 37° C. with increasing concentrations of [^125 I]-labeled penetrin. After 1 h the medium was removed, cell monolayers were washed three times with PBS, solubilized with 100 μl of 2M NaOH, and the retained radioactivity measured in a gamma counter. For inhibition experiments, an aliquot of [^125 I]-labeled penetrin was preincubated with the potential inhibitors prior to adding to confluent cells, and processed as above.

[3] = test system: T. cruzi penetrin (60 kD trypomastigote heparin-binding protein), column-purified; assay: Binding of column-purified [125I]-labeled penetrin to heparin-Sepharose; design: species or system Trypanosoma cruzi; details: compound 100 μg/ml; Bovine Serum Albumin control 1.9
Description: To determine if [^125 I]-labeled penetrin was still active in binding extracellular matrix proteins after isolation by heparin affinity chromatography, rebinding and inhibition of rebinding to heparin-Sepharosebeads was performed. Briefly, column purified [^125 I]-labeled penetrin was incubated with or without compounds and mixed with 100 μl of heparin-Sepharose. The mixture was incubated at room temperature for 2 h under slow rocking. The slurry was then centrifuged (500× g, 5 min), washed three times with PBS, and bound radioactivity determined in a gamma counter. Referring to FIG. 7, in the absence of competitors, column-purified [^125 I]-labeled penetrin retained its ability to bind heparin-Sepharose.
For inhibition experiments, an aliquot of the purified heparin-binding protein was mixed with putative inhibitors for 1 h at room temperature, and the mixture added to 100 μl of heparin-Sepharose as above. The amount of [^125 I]-labeled protein retained by the agarose beads was assessed by elution of the protein with 1% SDS, SDS-polyacrylamide gel electrophoresis and autoradiography, and quantitated in a laser scanning densitometer (Pharmacia LKB, Ultroscan XL). One hundred percent binding was taken as the amount of protein retained by the heparin-Sepharose in the absence of added inhibitor. Referring to Table 2, adsorption of penetrin was inhibited by pre-incubation with soluble heparin, heparan sulfate or collagen, but not with other glycosaminoglycans (chondroitin sulfate and hyaluronic acid).

[4] = test system: E. coli XL-1 Blue with clone HBP-6 expressing penetrin, entering Vero cells; assay: Penetrin-mediated entry of E. coli into Vero cells (gentamicin survival); assay type: cell-based, Escherichia coli; details: 250 μg/ml; for inhibition of penetration of bacteria: E. coli preincubated with inhibitor; for survival of bacteria after gentamicin: 4.3% without inhibitor
Description: E. coli expressing penetrin are able to enter nonphagocytic mammalian cells which normally exclude E. coli. […] Recombinant bacteria were grown overnight at 37°, washed twice in PBS, resuspended at 10^8 cells/ml, and aliquots of 2×10^7 E coli were added to monolayers of 2×10^5 Vero cells per microliter well in 1 ml of RPMI 1640 medium containing 1% BSA. Bacteria were centrifuged onto the cell monolayer, and the cultures were incubated at 37° for 3 h in a 5% CO2 /95% air atmosphere, washed three times with sterile PBS, and incubated for an additional 1.5 h at 37° C. in RPMI 1640 medium containing 1% BSA and 75 μg/ml gentamicin (to kill bacteria bound to outer membrane). The monolayers were then washed three times in sterile PBS, and lysed with 0.5% Triton X-100 in deionized water to release internalized bacteria, which were quantitated in agar plates.

[5] = test system: T. cruzi trypomastigotes infecting Vero cells; assay: Inhibition of T. cruzi infection of Vero cells; assay type: cell-based, Trypanosoma cruzi; details: for effect on infection: FIG. 4, even at high concentrations; for concentration causing 50% reduction of infection: FIG. 4, parasites preincubated 30 min, 2 h interaction, 3 days culture
Description: In these experiments, cultured Vero cells were released with trypsin/EDTA, plated at 7.5×10^3 cells/well in 16-well Lab-Tek® chamber slides™ for 24 h, and used for infection at ~75% confluence. Trypomastigotes were harvested, washed with serum-free RPMI containing 1% BSA, and mixed with various concentrations of proteoglycans. After 30 min at 37° C., 5×10^5 parasites in a total volume of 100 μl were added to each well containing subconfluent cultures of Vero cells and allowed to interact for 2 h at 37° C. At the end of the incubation time, cell monolayers were rinsed three times with serum-free medium, and further incubated in RPMI-1640 containing 1% Nu-serum for 3 days at 37° C. Finally, monolayers were washed, stained with Diff-Quik®, and examined under a microscope to estimate the ratio of infected (i.e., Vero cell containing more than one intracellular amastigote) to non-infected Vero cells. In order to establish if the inhibitory effect was due to interaction of heparin and heparan sulfate with trypomastigotes rather than to Vero cells, parasites or host cells were preincubated with the putative inhibitors, washed extensively, and assayed for infection as above.

T. cruzi trypomastigotes = assay: Trypomastigote binding to heparin- or collagen-coated wells; assay type: cell-based, Trypanosoma cruzi; details: soluble compound
Description: Proteoglycans (dissolved in PBS) and collagen solubilized in 0.1N HCl and neutralized in PBS) were adsorbed onto plastic (Falcon 3912 polyvinylchloride 96-well microliter plates) by incubation overnight at 4° C. (Roberts et al., J. BioI. Chem. 264:9289, 1989). The unbound proteins were removed, the wells filled with 1% heat-treated BSA in PBS (56° C., 60 min and filtered in […] nitrocellulose filters to remove insoluble particles) and incubated for 1 h at room temperature. The wells were then washed twice with PBS (pH 7.2) and rinsed with RPMI 1640 containing 1% BSA. T. cruzi trypomastigotes, labeled with [^35 S] methionine, were resuspended in RPMI-BSA and 100 μl of the suspension was applied to the wells. After various periods of incubation at 37° C., the wells were carefully washed three times with 37° C. PBS (pH 7.2). T. cruzi bound to the plastic-bound proteoglycans were then solubilized with 100 μ l of 2 M NaOH, mixed with Ultrafluor (National Diagnostics, Manville, N.J.), and assayed by liquid scintillation counting. Referring to FIG. 1a, adherence of trypomastigotes to heparin-coated plates increased linearly with the length of incubation up to about 60 min. In a separate experiment trypomastigotes were added for 60 min, but the number added was varied. […] In contrast, non-specific binding to BSA-coated wells was less than 2%.

## Chondroitin Sulfate
[1]; inhibitor 250 μg/ml
  % Vero Cells with Trypomastigotes: 96%
[2]; compound 250 μg/ml
  % Inhibition of penetrin binding to fibroblasts: 12%
[3]
  Penetrin Bound: 1.6 cpm × 10^-3
[4]
  effect on E. coli entry (in words): without effect
[5]
  effect on infection: little effect on infection

## Heparan Sulfate
[1]; inhibitor 125 μg/ml
  % Vero Cells with Trypomastigotes: 60%
[1]; inhibitor 250 μg/ml
  % Vero Cells with Trypomastigotes: 18%
T. cruzi trypomastigotes
  inhibition of trypomastigote binding to coated wells (in words): inhibited
[2]
  inhibition of binding of [125I]-labeled penetrin to Vero cell monolayers (in words): inhiited
[2]; compound 250 μg/ml
  % Inhibition of penetrin binding to fibroblasts: 65%
[3]
  Penetrin Bound: 0.75 cpm × 10^-3
[4]
  inhibition of penetration of bacteria: 85%
  survival of bacteria after gentamicin: 0.6%
[5]
  concentration causing 50% reduction of infection: 1.5 µg/mL

## Heparin
[1]; inhibitor 125 μg/ml
  % Vero Cells with Trypomastigotes: 50%
[1]; inhibitor 250 μg/ml
  % Vero Cells with Trypomastigotes: 12.5%
T. cruzi trypomastigotes
  inhibition of trypomastigote binding to coated wells (in words): inhibited
[2]
  inhibition of binding of [125I]-labeled penetrin to Vero cell monolayers (in words): inhiited
[2]; compound 5 μg/ml
  % Inhibition of penetrin binding to fibroblasts: 25%
[2]; compound 25 μg/ml
  % Inhibition of penetrin binding to fibroblasts: 55%
[2]; compound 50 μg/ml
  % Inhibition of penetrin binding to fibroblasts: 75%
[2]; compound 100 μg/ml
  % Inhibition of penetrin binding to fibroblasts: 89%
[2]; compound 250 μg/ml
  % Inhibition of penetrin binding to fibroblasts: 91%
[3]
  Penetrin Bound: 0.7 cpm × 10^-3
[4]
  inhibition of penetration of bacteria: 85%
  survival of bacteria after gentamicin: 0.6%
[5]
  concentration causing 50% reduction of infection: 100 µg/mL

## Hyaluronic Acid
[1]; inhibitor 250 μg/ml
  % Vero Cells with Trypomastigotes: 98%
[3]
  Penetrin Bound: 1.8 cpm × 10^-3
[4]
  effect on E. coli entry (in words): without effect
[5]
  effect on infection: little effect on infection
